Among the data in patent publication US20160002204A1 (Board of Regents, The University of Texas System, priority 2014, published 2016) are IC50 and EC50 values, retold here.

Molecules are shown by their SMILES. Where only a bound is given, the exact number is not on record here.

Test [1] addresses T1, GLS1 (purified recombinant human GAC) (Homo sapiens, UniProt O94925).
T1 sequence (O94925 55-598 isoform O94925-3 limits assumed): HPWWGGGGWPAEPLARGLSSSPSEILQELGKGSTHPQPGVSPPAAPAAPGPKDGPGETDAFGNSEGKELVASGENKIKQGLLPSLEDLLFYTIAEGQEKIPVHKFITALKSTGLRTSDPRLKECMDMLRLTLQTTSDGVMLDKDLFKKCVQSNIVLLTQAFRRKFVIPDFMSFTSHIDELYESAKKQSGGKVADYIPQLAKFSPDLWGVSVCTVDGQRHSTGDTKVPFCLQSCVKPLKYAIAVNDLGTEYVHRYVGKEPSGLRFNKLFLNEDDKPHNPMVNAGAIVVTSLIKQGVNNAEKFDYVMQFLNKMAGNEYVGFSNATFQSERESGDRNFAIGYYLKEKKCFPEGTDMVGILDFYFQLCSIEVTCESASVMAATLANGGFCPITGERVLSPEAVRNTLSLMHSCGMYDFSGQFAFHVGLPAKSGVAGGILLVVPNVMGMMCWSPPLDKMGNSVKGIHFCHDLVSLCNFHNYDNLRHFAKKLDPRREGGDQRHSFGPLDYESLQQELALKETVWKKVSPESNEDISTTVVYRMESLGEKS
The test can be described thus: GLS1 enzymatic activity assay (dual-coupled, Amplex UltraRed/resorufin). In kind it is biochemical. In a few lines: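 In this coupled fluorometric format, phosphate-activated GAC (2 nM, 50 mM phosphate) is pre-exposed to compound for 10 min before 1 mM glutamine addition. Product is tracked as resorufin (530/590 nm) over time or at 20 min, and potency is derived by logistic fitting.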

Test [2] relates to A549 cells. The test can be described thus: A549 proliferation (viability) assay, Cell Titer Fluor, 72 hours. The settings on record: Homo sapiens. Type of test: cell-based. In a few lines: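 A549 cells seeded at 1000 cells/well, left 24 h, then exposed to compound for 72 h at 37 °C, 5% CO2, final DMSO 0.5% (v/v). Viability read by Cell Titer Fluor fluorescence; EC50 from four-parameter logistic fit.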

For orientation: IC50 means the midpoint of a concentration-inhibition curve. Broadly, the EC50 is the midpoint of the concentration-response curve. Consider `Cn1cc(CC(=O)Nc2ccn(CCCCc3ccc(NC(=O)Cc4cccc(OC(F)(F)F)c4)nn3)c(=O)n2)cn1` [Example 114, N-[6-(4-{4-[2-(1-methyl-1H-pyrazol-4-yl)acetamido]-2-oxo-1,2-dihydropyrimidin-1-yl}butyl)pyridazin-3-yl]-2-[3-(trifluoromethoxy)phenyl]acetamide], for which the IC50 in test [1] was < 0.1 µM. In test [2], the EC50 is < 0.1 µM.
For the compound `O=C(Nc1ccn(CCC(F)Cn2cc(C(=O)NCc3cc(C(F)(F)F)ccn3)nn2)c(=O)n1)OCc1ccccc1` (centres unmarked) [Example 488, benzyl N-(1-{3-fluoro-4-[4-({[4-(trifluoromethyl)pyridin-2-yl]methyl}carbamoyl)-1H-1,2,3-triazol-1-yl]butyl}-2-oxo-1,2-dihydropyrimidin-4-yl)carbamate], in test [1], the IC50 was < 0.1 µM. Besides, in test [2], the EC50 was < 0.1 µM.
Turning to `O=C(Cc1ccc(Cl)nc1)Nc1ccn(CCC(F)Cn2cc(C(=O)NCc3cccc(OC(F)(F)F)c3)nn2)c(=O)c1` (centres unmarked) [Example 238, 1-(4-{4-[2-(6-chloropyridin-3-yl)acetamido]-2-oxo-1,2-dihydropyridin-1-yl}-2-fluorobutyl)-N-{[3-(trifluoromethoxy)phenyl]methyl}-1H-1,2,3-triazole-4-carboxamide], in test [1], the IC50 was < 0.1 µM. The EC50 in test [2] lay in the range of 0.1 to 0.5 µM.
As to `O=C(NCc1cccc(OC(F)(F)F)c1)c1cn(CC(F)CCn2ccc(NC(=O)[C@@H](O)c3ccccc3)cc2=O)nn1` (stereo partly drawn) [Example 224, 1-(2-fluoro-4-{4-[(2S)-2-hydroxy-2-phenylacetamido]-2-oxo-1,2-dihydropyridin-1-yl}butyl)-N-{[3-(trifluoromethoxy)phenyl]methyl}-1H-1,2,3-triazole-4-carboxamide], the half-maximal inhibitory concentration (IC50) in test [1] is < 0.1 µM. In addition, the EC50 in test [2] is < 0.1 µM.
In the case of `N#Cc1cccc(CC(=O)Nc2ccn(CCC(F)Cn3cc(C(=O)NCc4cccc(OC(F)(F)F)c4)nn3)c(=O)c2)c1` (centres unmarked) [Example 235, 1-(4-{4-[2-(3-cyanophenyl)acetamido]-2-oxo-1,2-dihydropyridin-1-yl}-2-fluorobutyl)-N-{[3-(trifluoromethoxy)phenyl]methyl}-1H-1,2,3-triazole-4-carboxamide], the IC50 in test [1] was < 0.1 µM. In test [2], this compound showed an EC50 of 0.5 to 5 µM.
Consider `O=C(Cc1ccccc1)Nc1ccn(CCC(F)Cn2cc(C(=O)NCc3cc(OC(F)(F)F)ccc3F)nn2)c(=O)c1` (centres unmarked) [Example 12, 1-(2-fluoro-4-(2-oxo-4-(2-phenylacetamido)pyridin-1(2H)-yl)butyl)-N-(2-fluoro-5-(trifluoromethoxy)benzyl)-1H-1,2,3-triazole-4-carboxamide], for which the IC50 in test [1] is < 0.1 µM. Moreover, in test [2], the EC50 was < 0.1 µM.
As to `O=C(Cc1c(F)cccc1F)Nc1ccn(CCC(F)Cn2cc(C(=O)NCc3cccc(OC(F)(F)F)c3)nn2)c(=O)c1F` (stereo not drawn) [Example 335, l-(4-{4-[2-(2,6-difluorophenyl)acetamido]-3-fluoro-2-oxo-1,2-dihydropyridin-1-yl}-2-fluorobutyl)-N-{[3-(trifluoromethoxy)phenyl]methyl}-1H-1,2,3-triazole-4-carboxamide], the IC50 in test [1] is < 0.1 µM. Also, the EC50 in test [2] was 0.1 to 0.5 µM.
On the same counts, the results for `Cc1ccc(CNC(=O)c2nnc(CCCCn3ccc(NC(=O)Cc4cccc(OC(F)(F)F)c4)cc3=O)s2)cn1` [Example 442, N-[(6-methylpyridin-3-yl)methyl]-5-[4-(2-oxo-4-{2-[3-(trifluoromethoxy)phenyl]acetamido}-1,2-dihydropyridin-1-yl)butyl]-1,3,4-thiadiazole-2-carboxamide] are < 0.1 µM and < 0.1 µM.
The corresponding values for `CCOC(=O)N1CCC(CC(=O)Nc2ccn(CCC(F)Cn3cc(C(=O)NCc4cccc(OC(F)(F)F)c4)nn3)c(=O)c2F)CC1` (centres unmarked) [Example 300, ethyl 4-{[(3-fluoro-1-{3-fluoro-4-[4-({[3-(trifluoro-methoxy)phenyl]methyl}carbamoyl)-1H-1,2,3-triazol-1-yl]butyl}-2-oxo-1,2-dihydropyridin-4-yl)carbamoyl]methyl}piperidine-1-carboxylate] are < 0.1 µM and < 0.1 µM.
On the same counts, the results for `O=C(NCc1cc(C(F)(F)F)ccn1)c1cn(CC(F)CCn2ccc(COc3ccc(F)cc3F)cc2=O)nn1` (centres unmarked) [Example 484, 1-{4-[4-(2,4-difluorophenoxymethyl)-2-oxo-1,2-dihydropyridin-1-yl]-2-fluorobutyl}-N-{[4-(trifluoromethyl)pyridin-2-yl]methyl}-1H-1,2,3-triazole-4-carboxamide] are < 0.1 µM and 0.1 to 0.5 µM.
As for `O=C(Cc1cscn1)Nc1ccn(CCC(F)Cn2cc(C(=O)NCc3cccc(OC(F)(F)F)c3)nn2)c(=O)c1` (centres unmarked) [Example 247, 1-(2-fluoro-4-{2-oxo-4-[2-(1,3-thiazol-4-yl)acetamido]-1,2-dihydropyridin-1-yl}butyl)-N-{[3-(trifluoromethoxy)phenyl]methyl}-1H-1,2,3-triazole-4-carboxamide], in test [1], the IC50 was < 0.1 µM. The EC50 in test [2] is 0.5 to 5 µM.
On the same counts, the results for `O=C(NCc1cc(C(F)(F)F)ccn1)c1cn(CC(F)CCn2ccc(COc3ccc(Cl)cc3)cc2=O)nn1` (centres unmarked) [Example 486, 1-{4-[4-(4-chlorophenoxymethyl)-2-oxo-1,2-dihydropyridin-1-yl]-2-fluorobutyl}-N-{[4-(trifluoromethyl)pyridin-2-yl]methyl}-1H-1,2,3-triazole-4-carboxamide] are < 0.1 µM and < 0.1 µM.
The corresponding values for `O=C1CCC(CC(=O)Nc2ccn(CCCCn3cc(C(=O)NCc4cccc(OC(F)(F)F)c4)nn3)c(=O)c2)CC1` [Example 204, 1-(4-{2-oxo-4-[2-(4-oxocyclohexyl)acetamido]-1,2-dihydropyridin-1-yl}butyl)-N-{[3-(trifluoromethoxy)phenyl]methyl}-1H-1,2,3-triazole-4-carboxamide] are < 0.1 µM and 0.5 to 5 µM.
On the same counts, the results for `O=C(Nc1ccn(CCC(F)Cn2cc(C(=O)NCc3cc(C(F)(F)F)ccn3)nn2)c(=O)n1)NC1CCC1` (centres unmarked) [Example 496, 1-(4-{4-[(cyclobutylcarbamoyl)amino]-2-oxo-1,2-dihydropyrimidin-1-yl}-2-fluorobutyl)-N-{[4-(trifluoromethyl)pyridin-2-yl]methyl}-1H-1,2,3-triazole-4-carboxamide] are 0.5 to 5 µM and > 5 µM.
As for `O=C(Nc1ccn(CCC(F)Cn2cc(C(=O)NCc3cccc(OC(F)(F)F)c3)nn2)c(=O)c1F)C(=O)c1ccccc1` (centres unmarked) [Example 315, 1-{2-fluoro-4-[3-fluoro-2-oxo-4-(2-oxo-2-phenylacetamido)-1,2-dihydropyridin-1-yl]butyl}-N-{[3-(trifluoromethoxy)phenyl]methyl}-1H-1,2,3-triazole-4-carboxamide], in test [1], the 50% inhibitory concentration (IC50) is < 0.1 µM. In addition, in test [2], the EC50 is < 0.1 µM.
In the case of `O=C(Cc1ccccc1)Nc1ccn(CCCCn2cc(C(=O)NCc3ncccc3F)nn2)c(=O)c1` [Example 147, N-[(3-fluoropyridin-2-yl)methyl]-1-{4-[2-oxo-4-(2-phenylacetamido)-1,2-dihydropyridin-1-yl]butyl}-1H-1,2,3-triazole-4-carboxamide], the IC50 in test [1] is 0.1 to 0.5 µM. Besides, the EC50 in test [2] is > 5 µM.
